The record followed here is PubChem BioAssay (NCI).

The structures appear in SMILES notation.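 Grown in 96-well plates, cells were treated for 48 hours with each compound at five concentrations. Insufficient inhibition: endpoint recorded as highest concentration tested. Here, GI50 denotes the concentration required for 50% inhibition of growth. Definition used: TGI = concentration required for complete inhibition of growth.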 Bounds are passed on as bounds.

Common to all, as to assay: NCI anticancer screen, dose series, 48 h
Assay [1] has as its system A549 NSCLC.
Assay [2] has as its system HCT-15 colon.
Assay [3] concerns HS 578T breast.
Assay [4] deals with CCRF-CEM leukemia.
Assay [5] deals with TK-10 renal.
The test system of assay [6] is BT-549 breast.
In assay [7] the test system is MALME-3M melanoma.
The subject of assay [8] is CAKI-1 renal.
Assay [9] deals with SF-539 CNS.
In assay [10] the test system is UACC-257 melanoma.

Turning to `COc1ccc(OC)c(NC(=O)c2cccc(NC3=C(Cl)C(=O)N(Cc4ccccc4)C3=O)c2)c1`, the GI50 in assay [1] is more than 100 µM; in assay [2], more than 100 µM; in assay [3], more than 100 µM; in assay [5] it was more than 59.5 µM; in [6], 18.3 µM; in [7] it was more than 49.3 µM. The GI50 in assay [8] was more than 100 µM; in [9] it was more than 94.9 µM; in assay [10] it was 23.5 µM. In addition, the TGI in [1], in [2], in assay [3], in [4], in assay [5] and in [6] was more than 100 µM in each case. Also, the TGI was more than 86.4 µM in [7], more than 100 µM in assay [8], more than 100 µM in assay [9] and more than 100 µM in assay [10].
As for `CC(CN(C)C)S(=O)(=O)c1ccc(-c2cnc(N)c(C(=O)Nc3ccccc3)n2)cc1` (centres undefined), the GI50 in [1] is 2.86 µM; in [2], 2.91 µM; in [3], 2.41 µM; in assay [4] it was 2.61 µM; in assay [5], 11.5 µM; in [6] it was 6.43 µM. In addition, the GI50 in [7] was 8.16 µM; in assay [8], 3.02 µM; in [9], 2.75 µM; in assay [10], 2.04 µM. In addition, the TGI in assay [1] was more than 46.1 µM; in assay [2] it was 13.4 µM; in assay [3] it was 27 µM; in [4], 29.6 µM; in assay [5] it was more than 57.2 µM; in [6], 27.2 µM. The TGI in assay [7] is 26.6 µM; in [8], more than 50.8 µM; in assay [9], 9.76 µM; in [10], 5.06 µM.
For the compound `CCN(CC)CCC(=O)OC1C(C)=CC(C)C(=O)CC(C(C)CC2CCC(O)C(OC)C2)OC(=O)C2CCCCN2C(=O)C(=O)[C@@]2(O)OC(CCC2C)CC(OC)\C(C)=C/C=C/C=C/C(C)CC(C)C(=O)C1OC` (some centres undefined), the TGI turned out to be 16.6 µM in assay [1]; 20.6 µM in assay [2]; 13.7 µM in [3]; 13.8 µM in assay [4]; 23.2 µM in assay [5]; 15.5 µM in [6]. The TGI is 18.8 µM in assay [7], 21.5 µM in [8], 15.2 µM in assay [9] and 27.1 µM in assay [10].
For the compound `O=C1NC(O)c2ccccc2O1` (centres undefined), the TGI in assay [1], in assay [2], in assay [3], in [4], in [5] and in [6] was more than 100 µM each time. Further, the TGI in [7], in assay [8], in assay [9] and in assay [10] was more than 100 µM throughout.
Take `O=P(O)(O)OCC1OC(n2cnc3c(NCc4ccco4)ncnc32)C(O)C1O` (centres undefined): the GI50 in [1] was 2.73 µM; in [2], 0.701 µM; in assay [3], 0.802 µM; in assay [4] it was 0.315 µM; in assay [5], 1.77 µM; in assay [6], 0.575 µM. Moreover, the GI50 is 5.09 µM in assay [7], 0.596 µM in [8], 2.7 µM in [9] and more than 100 µM in assay [10]. Moreover, the TGI was more than 37.8 µM in assay [1]; more than 56.9 µM in assay [2]; 7.17 µM in assay [3]; 1.14 µM in [4]; more than 43.9 µM in assay [5]; 3.85 µM in [6]. Besides, the TGI is 40.9 µM in assay [7], 3.01 µM in [8], 12.5 µM in assay [9] and more than 100 µM in assay [10].
Regarding `Clc1ccccc1[C@@H]1C[C@@H]2Cc3cc(Br)c4ccccc4c3N1O2`, the GI50 was 4.91 µM in [1]; 4.39 µM in assay [2]; 3.04 µM in [3]; 4.87 µM in assay [4]; 5.54 µM in assay [5]; 6.8 µM in [6]. In addition, the GI50 in assay [7] is 4.83 µM; in [8], 4.18 µM; in assay [9], 3.04 µM; in [10], 3.77 µM. In addition, the TGI is more than 100 µM in [1]; more than 100 µM in [2]; 8.82 µM in assay [3]; more than 100 µM in assay [4]; more than 100 µM in assay [5]; more than 100 µM in assay [6]. Also, the TGI in assay [7], in assay [8], in [9] and in [10] was more than 100 µM in each case.
Take `COc1ccc(C(C#N)=C2C=CC(=NO)C=C2)cc1`: the GI50 in assay [1] was 16.5 µM; in assay [2], 11.7 µM; in assay [3], 2.9 µM; in [4], 2.76 µM; in assay [5], 3.87 µM; in [6], 14.4 µM. Also, the GI50 was 12.4 µM in assay [7], 4.88 µM in [8], 3.79 µM in assay [9] and 10.5 µM in assay [10]. Besides, the TGI in assay [1] is 39.8 µM; in assay [2], 26.1 µM; in assay [3], 20.3 µM; in [4] it was more than 100 µM; in [5], 8.72 µM; in assay [6] it was 29 µM. Besides, the TGI in assay [7] was found to be 27.5 µM; in assay [8] it was 15.1 µM; in [9], 13.8 µM; in assay [10] it was 30.6 µM.
Turning to `COc1cccc(Sc2ccc([N+](=O)[O-])c3no[n+]([O-])c23)c1`, the GI50 in assay [1] was 36.1 µM; in [2], 7.82 µM; in assay [3], 16.2 µM; in assay [4], 2.6 µM; in assay [5] it was 10.9 µM; in assay [6], 8.06 µM. Further, the GI50 was 4.67 µM in assay [7], 10.5 µM in assay [8], 14.7 µM in assay [9] and 14 µM in assay [10]. Besides, the TGI was more than 100 µM in assay [1]; 23.1 µM in [2]; 61.7 µM in assay [3]; 8.14 µM in [4]; 24.7 µM in assay [5]; 22.1 µM in assay [6]. Besides, the TGI in assay [7] stood at 15 µM; in assay [8] it was 24.1 µM; in assay [9], 28.1 µM; in assay [10], 29.9 µM.
